Assay results reported in ChEMBL document CHEMBL5252621, “Effective Combination Therapies for the Treatment of HER2 Cancer” (2023).

Columns and labels:
HCC1954 [1] = test: Antitumor activity against human HCC1954 cells xenografted in NCR nude mouse model assessed as tumor growth inhibition at 25 mg/kg via oral gavage administered for 28 days by caliper method; type: functional; conditions: HCC1954, 672 h, time 28 day, read-out: TGI
HCC1954 [2] = test: Antitumor activity against human HCC1954 cells xenografted in NCR nude mouse model assessed as tumor growth inhibition at 25 mg/kg via oral gavage administered for 28 days in presence of trastuzumab/pertuzumab by caliper method; type: functional; conditions: HCC1954, 672 h, time 28 day, read-out: TGI

## C[C@H](Nc1ccc2c(c1)OCCn1cc(N3C(=O)OC[C@H]3C(F)F)nc1-2)C(N)=O [INAVOLISIB]
HCC1954 [1]
  inhibition in vivo at 25 mg/kg: 122%
HCC1954 [2]
  inhibition in vivo at 25 mg/kg: 148%
